According to paper PMC10890666, “Targeted Affinity Purification and Mechanism of Action of Angiotensin-Converting Enzyme (ACE) Inhibitory Peptides from Sea Cucumber Gonads” (Marine Drugs, 2024):
Like-named read-outs stand apart in the source and are kept apart here. Each block holds one molecule with its values, some of them ahead of it.

Legend:
[1] = tested on: angiotensin-converting enzyme (ACE); conditions: cited from earlier work; for IC50: read-out: IC50 (ACE inhibition)
Excerpt: The immobilization of ACE using various immobilization media is a promising affinity purification method to obtain shorter peptides from diverse sources. […] Feng et al. used a novel affinity medium Fe3O4@ZIF-90 and combined this method with reversed-phase high-performance liquid chromatography (RP-HPLC) and MALDI-TOF mass spectrometry to purify ... || Collectively, low-molecular-weight fractions isolated from SCGHs using the ultrafiltration method allowed us to obtain small peptides with potent ACE inhibitory activity. ACE inhibitory molecules are typically characterized by their small and short-chain peptide structures. In this study, a combination of ultrafiltration separation and SCGH effectively eliminated substances above 3 kDa. We further isolated the active components by utilizing an ACE enzyme affinity column, which facilitated the removal of other nonspecifically bound substances and yielded the target peptides. […] For instance, the experimentally purified short peptide DDQYHIF features Phe at the C-terminus, while HDWWKER has basic amino acids Arg and His at the C- and N-termini, respectively. Sun et al. reported that peptides with Arg at the C-termi ...

[2] = biological target: T1, angiotensin-I-converting enzyme (ACE) (UniProt P12822 34-1260); test: cell-based or functional assay
T1 sequence (looked up): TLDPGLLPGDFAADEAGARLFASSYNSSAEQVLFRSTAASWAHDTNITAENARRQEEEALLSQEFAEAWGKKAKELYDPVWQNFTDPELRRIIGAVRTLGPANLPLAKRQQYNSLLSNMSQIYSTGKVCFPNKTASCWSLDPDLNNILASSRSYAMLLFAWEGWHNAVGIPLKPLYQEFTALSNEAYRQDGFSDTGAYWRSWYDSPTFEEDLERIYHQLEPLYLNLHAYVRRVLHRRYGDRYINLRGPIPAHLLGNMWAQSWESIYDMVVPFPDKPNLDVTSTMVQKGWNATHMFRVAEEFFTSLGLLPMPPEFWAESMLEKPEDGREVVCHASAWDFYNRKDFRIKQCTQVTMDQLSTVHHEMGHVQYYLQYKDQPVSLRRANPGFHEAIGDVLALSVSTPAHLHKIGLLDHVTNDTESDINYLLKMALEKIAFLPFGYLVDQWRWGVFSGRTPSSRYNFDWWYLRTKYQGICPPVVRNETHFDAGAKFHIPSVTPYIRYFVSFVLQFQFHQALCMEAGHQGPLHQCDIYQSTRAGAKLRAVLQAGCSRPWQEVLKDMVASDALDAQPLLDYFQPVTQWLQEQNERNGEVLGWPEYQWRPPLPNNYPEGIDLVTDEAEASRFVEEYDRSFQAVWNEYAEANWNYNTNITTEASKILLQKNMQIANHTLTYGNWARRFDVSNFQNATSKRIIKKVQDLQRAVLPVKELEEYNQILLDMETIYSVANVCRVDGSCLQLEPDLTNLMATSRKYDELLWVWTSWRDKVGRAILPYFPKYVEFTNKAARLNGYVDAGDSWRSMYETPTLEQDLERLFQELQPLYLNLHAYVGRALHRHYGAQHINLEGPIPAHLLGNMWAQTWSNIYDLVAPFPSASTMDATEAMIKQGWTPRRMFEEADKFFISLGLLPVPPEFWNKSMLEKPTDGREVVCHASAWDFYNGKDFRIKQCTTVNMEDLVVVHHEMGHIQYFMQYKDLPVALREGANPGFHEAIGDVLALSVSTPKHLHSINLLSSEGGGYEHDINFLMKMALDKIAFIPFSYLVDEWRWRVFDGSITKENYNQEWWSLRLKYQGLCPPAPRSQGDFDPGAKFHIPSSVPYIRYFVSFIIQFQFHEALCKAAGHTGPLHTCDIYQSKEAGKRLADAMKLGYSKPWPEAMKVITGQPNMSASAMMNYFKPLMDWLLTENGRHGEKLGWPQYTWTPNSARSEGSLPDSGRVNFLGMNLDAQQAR

[3] = from Ulva intestinalis, ref [32]

Molecule: LLYQEPVLGPVR
ACE inhibition (in words) ([1]; from casein hydrolysate, ref [7]): potent ACE inhibitory peptide

Molecule: EIYR
IC50 ([1]; from sea cucumber gonads, ref Zhong et al. (2018)): 348 µM

Molecule: FGMPLDR
IC50 [1, 3]: 219 µM

Molecule: GMKCA
ACE inhibition (in words) ([1]; ref [9]): ACE inhibitory peptide | IC50 ([1]; ref [9]): 45.7 µM

Molecule: MELVLR
IC50 [1, 3]: 237 µM

Molecule: KNFL
ACE inhibition (in words) ([1]; from Undaria pinnatifida, ref [8]): ACE inhibitory peptide

Molecule: TLRFALHGME [novel peptide from Takifugu flavidus hydrolysate]
IC50 ([1]; from Takifugu flavidus hydrolysate, ref [17]): 93.5 µM

IC50 of ACE inhibition (HHL substrate, HPLC) [2]: 1290 µM
Molecule: THDWWKER

IC50 of ACE inhibition (HHL substrate, HPLC) [2]: 584 µM
Molecule: HDWWKER

IC50 of ACE inhibition (HHL substrate, HPLC) [2]: 334 µM
Molecule: DDQYHIF
